US20040067998A1, “Antifungal and/or antiparasitic pharmaceutical composition and novel indole derivatives as active principle of such a composition” (priority 2003, published 2004)
Converted amounts (≈) assume the structure as drawn. “And” between values parts separate entries of the source, which are not always exact repeats. Equal entries are not always repeated. Where two headings read alike, the source gives them in different places.

Assays:
[1] = test system: promastigote stage of Leishmania mexicana; assay: Antiparasitic activity on the promastigote form of Leishmania (MTT); assay type: cell-based; details: for IC50: read-out: CI50 Leishmania mexicana Promastigotes
[2] = test system: Aspergillus fumigatus (strain n°AF 980003); assay: Antifungal activity on a clinical strain of Aspergillus fumigatus (Alamar Blue microplate test); assay type: cell-based; details: strain AF980003
[3] = test system: Candida albicans (strain n° CA980001); assay: Antifungal activity on a clinical strain of Candida albicans (MTT colorimetric microplate test); assay type: cell-based; details: for MIC / CMI or CI80 Candida albicans (CA980001): strain CA980001; for MIC: read-out: CMI or CI80 Candida albicans (CA980001); for activity of inhibition of Candida albicans (in words): summary of Tables 27 to 40
[4] = test system: intracellular amastigote form of Leishmania mexicana; assay: Anti-leishmanian activity on the amastigote form in peritoneal macrophages of BALB/c mice; assay type: cell-based
[5] = test system: Candida krusei (4 strains); assay: Antifungal activity in vitro on clinical strains of Candida: krusei (4 strains); assay type: cell-based
[6] = test system: Candida parapsilosis (2 strains); assay: Antifungal activity in vitro on clinical strains of Candida: parapsilosis (2 strains); assay type: cell-based
[7] = test system: Candida albicans (4 strains); assay: Antifungal activity in vitro on clinical strains of Candida: albicans (4 strains); assay type: cell-based; details: for activity against strains of Candida albicans (in words): clinical strains
[8] = test system: Candida lusitaniae (1 strain); assay: Antifungal activity in vitro on clinical strains of Candida: lusitaniae (1 strain); assay type: cell-based; details: for activity against Candida lusitaniae (in words): clinical strain; for CI80 on clinical strains of Candida: strain CL980001 (Candida lusitaniae)
[9] = test system: Candida albicans (CA98001); assay: Antifungal activity in vivo on a model of disseminated candidiasis; design: species or system female Swiss mice
[10] = strain CK980001 (Candida krusei)
[11] = strain CK980002 (Candida krusei)
[12] = strain CK980003 (Candida krusei)
[13] = strain CK980004 (Candida krusei)
[14] = strain CP980001 (Candida parapsilosis)
[15] = strain CP980002 (Candida parapsilosis)
[16] = strain CA980001 (Candida albicans)
[17] = strain CA980002 (Candida albicans)
[18] = strain CA980003 (Candida albicans)
[19] = strain CA980005 (Candida albicans)

| SMILES | CI50 Leishmania mexicana Promastigotes ([1]; promastigotes) [µg/mL] | IC50 ([1]; promastigotes) [nM] | CMI or CI80 Aspergillus fumigatus (AF980003) [2] | CMI or CI80 Candida albicans (CA980001) [3] [µg/mL] | MIC [3] [µM] | activity of inhibition of Candida albicans (in words) [3] | CI80 on clinical strains of Candida [5, 10] [nM] | CI80 on clinical strains of Candida [5, 11] [nM] | CI80 on clinical strains of Candida [5, 12] [nM] | CI80 on clinical strains of Candida [5, 13] [nM] | CI80 on clinical strains of Candida [6, 14] [nM] | CI80 on clinical strains of Candida [6, 15] [nM] | activity against strains of Candida albicans (in words) [7] | CI80 on clinical strains of Candida [7, 16] [nM] | CI80 on clinical strains of Candida [7, 17] [nM] | CI80 on clinical strains of Candida [7, 18] [nM] | CI80 on clinical strains of Candida [7, 19] [nM] | activity against Candida lusitaniae (in words) [8] | CI80 on clinical strains of Candida [8] [nM] | other results |
| --- | --- | --- | --- | --- | --- | --- | --- | --- | --- | --- | --- | --- | --- | --- | --- | --- | --- | --- | --- | --- |
| Brc1ccc(C(Cn2ccc3ccccc32)n2ccnc2)cc1 (stereo not shown) [Cpsé 84, 1-[2-(4-Bromophenyl)-2-(1H-imidazol-1-yl)ethyl]-1H-indole] |  |  |  |  |  |  |  |  |  |  |  |  |  |  |  |  |  |  |  | activity against Leishmania mexicana (in words) [1]: most active; IC50 ([1]; Leishmania mexicana): 0.16 µg/mL and 370 nM; MIC ([2]; Aspergillus fumigatus, read-out: CMI or CI80 Aspergillus fumigatus (AF980003)): > 100 µM; MIC ([3]; Candida albicans, 24 h): > 100 µM; activity against the intracellular amastigote form of Leishmania (in words) [4]: very active; IC50 ([4]; Leishmania mexicana, Peritoneal macrophage, intracellular amastigote form, read-out: CI50 Intracellular amastigotes): 3.1 ± 0.04 µg/mL (≈ 8.46 µM) |
| OC(Cn1ccnc1)(Cn1ccc2ccccc21)c1ccc(Cl)cc1 (stereo not shown) [compound 74] | 5 ± 0.2 (≈ 14.2 µM) | 15000 ± 600 | 83 ± 4 μM and 29 ± 1 μg/mL | 0.02 | 0.07 (≈ 0.0246 µg/mL) | most active | 59290 ± 1330 | 7740 ± 130 | >100000 | >100000 | 690 ± 30 | 3710 ± 1246 | very active | 61 ± 4 | 470 ± 17 | 70 ± 4.7 | 300 ± 24 | very active | 630 ± 10 | activity against Candida parapsilosis (in words) ([6]; clinical strains): very active |
| OC(Cn1ccnc1)(Cn1ccc2ccccc21)c1ccc(Cl)cc1Cl (stereo not shown) [compound 75] | 1.47 (≈ 3.81 µM) | 4000 | 4 ± 0 μM and 1 ± 0 μg/mL |  | <0.001 | most active | 620 ± 2 |  | >1000 | 4200 ± 100 | 1000 ± 100 | 860 ± 40 | active | <1 | 650 ± 10 | 640 ± 10 | 710 ± 10 |  | 300 ± 100 | activity on survival at the end of the experiment (D14) (in words) ([9]; Test N°1, 20 mg/kg/d for 5 d): not on survival at the end of the experiment; activity on the survival at D4-D5 (in words) ([9]; Test N°1, 20 mg/kg/d for 5 d): slight activity; survival improved compared to the control batch ([9]; Test N°1, day 8 (D8), daily dose of 20 mg/kg): 25%; survival at D14 ([9]; Test N°2, 2 × 30 mg/kg/d for 5 d intraperitoneally): Compound 75: no survival at end of experiment (D14).; effect of treatment on the survival of the animals (in words) ([9]; Test N°2, 2 × 30 mg/kg/d for 5 d intraperitoneally, monitored 14 days (78: from D9 to D14)): ineffective; activity against Candida krusei (in words) ([5]; clinical strains, b748: one strain): active |
| OC(Cn1ccnc1)(Cn1ccc2ccccc21)c1ccc(F)cc1 (stereo not shown) [compound 76] | 3 ± 0.03 (≈ 8.95 µM) | 9200 ± 90 | 88 ± 2 μM and 30 ± 0.7 μg/mL | 0.03 | 0.08 (≈ 0.0268 µg/mL) | most active | 65380 ± 3710 | 38050 ± 7240 | 85270 ± 324 | >100000 | 4100 ± 350 | 6320 ± 140 | very active | 67 ± 5 | 610 ± 22 | 250 ± 110 | 440 ± 44 | very active | 690 ± 80 |  |
